Tests used:
[1] = 101.33 kPa, Liquid; for speed of sound: Frequency=2 MHz, Linear variable-path acoustic interferometer; for mass density: Vibrating tube method
[2] = xn = mol fraction of the nth substance listed; conditions: 101 kPa, Liquid; for speed of sound: Frequency=2 MHz, Linear variable-path acoustic interferometer; for mass density: Vibrating tube method

Nc1ccccc1Cl [2-chlorobenzeneamine]
[1]
Conditions | mass density [kg/m3] | speed of sound [m/s]
303.15 K | 1202.38 | 1468
308.15 K | 1197.56 | –
313.15 K | 1192.97 | 1437
318.15 K | 1187.92 | –
323.15 K | 1183.26 | –

Nc1ccccc1Cl [2-chlorobenzeneamine] + OCc1ccccc1
[2]
Conditions | mass density, 303.15 K [kg/m3] | mass density, 308.15 K [kg/m3] | mass density, 313.15 K [kg/m3] | mass density, 318.15 K [kg/m3] | mass density, 323.15 K [kg/m3] | speed of sound, 303.15 K [m/s] | speed of sound, 313.15 K [m/s]
x2 = 0.1018 | 1188.36 | 1183.05 | 1178.05 | 1172.74 | 1167.93 | 1470.9 | 1440.8
x2 = 0.2031 | 1173.95 | 1168.26 | 1162.88 | 1157.37 | 1152.55 | 1474.4 | 1445.4
x2 = 0.3041 | 1158.94 | 1153 | 1147.35 | 1141.76 | 1136.87 | 1478 | 1450.2
x2 = 0.4047 | 1143.31 | 1137.27 | 1131.48 | 1125.89 | 1121.03 | 1482.1 | 1455
x2 = 0.5049 | 1126.98 | 1121.04 | 1115.21 | 1109.7 | 1104.91 | 1486.4 | 1459.9
x2 = 0.6047 | 1110.07 | 1104.31 | 1098.62 | 1093.31 | 1088.6 | 1490.9 | 1464.9
x2 = 0.7041 | 1092.58 | 1087.09 | 1081.73 | 1076.67 | 1072.12 | 1495.6 | 1470.1
x2 = 0.8031 | 1074.51 | 1069.49 | 1064.51 | 1059.84 | 1055.47 | 1500.6 | 1475.4
x2 = 0.9017 | 1056 | 1051.53 | 1047 | 1042.77 | 1038.7 | 1506 | 1481

Reference: the NIST ThermoML archive (doi:10.1016/j.fluid.2018.01.025)
